Here are results for one compound from patent US8148578B2, “Fast acting naratriptan composition” (Emisphere Technologies Inc., priority 2008, dated 2012).

Molecules are shown by their SMILES. Read-outs that look alike come from different tables or passages of the source.

Data set [1] can be described thus: Oral pharmacokinetics of naratriptan in rats, alone or combined with an absorption enhancer carrier. The class given is in vivo, Sprague-Dawley rats. The note with it: Nar 10 mg/kg, carrier 200 mg/kg. As for the experimental part: In the present invention, the delivery system is the pharmaceutical formulations which may be in the form of a liquid or solid. Liquid formulations may be water-based. The absorption enhancer was dissolved in deionized water. 10 N NaOH solution was used to help dissolving acid form carriers. HCl was added to lower pH of the absorption enhancer stock solution if the pH was higher than 7.4. Naratriptan powder was added to the absorption enhancer solution 5 minutes before dosing. The final concentration of drug was 10 mg/ml, and the final concentration of carrier was 200 mg/ml for the study.
Naratriptan is also designated Nar. Naratriptan was administered alone to rates orally as a control. For oral dosing, single solutions were administrated at time 0, in the following manner: (a) each absorption enhancer carrier (200 mg/kg) in combination with Nar (10 mg/kg) was administered orally to rats; and (b) Nar (10 mg/kg) alone was administered orally to rats. Blood samples were collected by retro-orbital bleed under CO2 anesthesia pre-dosing (0 minute), and 5, 15, 30, 40, 50, 60, 120 and 240 minutes after dosing. […] Both, the Nar/2-HPOD and Nar/2-HPHM combination took approximately ½ the time of Naratriptan alone. […] Also the mean Cmax value of the Nar/4-PPED combination was approximately 2-fold higher compared to that obtained following Naratriptan alone.

For data set [2] the following is noted: cited from earlier work.
Where [3] appears, read: Sprague-Dawley, rat, naratriptan in plasma, fasted male rats, single oral dose, n=5.

For `CNS(=O)(=O)CCc1ccc2[nH]cc(C3CCN(C)CC3)c2c1` [Naratriptan], in data set [1] (Example 1, rats, oral), the “time of mean peak Naratriptan plasma concentration post-dose” value stood at 27 min. Besides, in data set [1] (setting [3]), the Cmax (commonly the peak of the concentration-time curve) turned out to be 1050 ng/mL and the Tmax – broadly, the time from dosing to the highest level – was 27 min. Further, the “AU Clast” value in data set [1] (naratriptan in plasma, fasted male rats, single oral dose, n=5) was found to be 62851 ng·min/mL. Besides, in data set [2] (2.5 mg tablet orally), the “time to peak concentrations” value is 2 to 3 h. In data set [2] (during a migraine attack), the Tmax was 180 to 240 min. Also, the oral bioavailability entry in data set [2] (naratriptan tablets) is listed as “about 70%”.
